Patent US20220011296A1, “DETERMINING TREATMENT RESPONSE IN SINGLE CELLS” (Dana-Farber Cancer Institute, Inc., priority 2018, published 2022)
Entries after “also recorded” stand apart in the source; their conditions may differ.

Assays:
Type in all cases: cell-based, human
[1] = test system: metastatic non-small-cell lung cancer cells (BT1443); experiment: sSMR buoyant mass and MAR measurement, lung metastasis (BT1443); conditions: carboplatin 100 μM, 72 h
Description: Patient-derived cells from six different types of brain tissues were assessed for drug sensitivity in the sSMR: non-tumor brain tissue from epilepsy surgery, glioblastoma, recurrent glioblastoma, breast metastasis, lung metastasis, and primary CNS lymphoma. Resected samples obtained with patient consent to research (Brigham and Women's Hospital, DF/HCC IRB-approved consent protocol 10-417) were enzymatically and physically dissociated using the Brain Tumor Dissociation Kit P (130-095-942, Miltenyi Biotec) and gentleMACS Dissociator (130-093-235, Miltenyi Biotec). […]
Primary Sample Handling. […] Measurements for sample viability were determined (Table 2, below).
Measurements were obtained from […] types of primary patient sample types, including: non-tumor brain tissue resected for a non-tumor condition (FIGS. 5A-5B, Table 6) (n=1); primary glioblastoma (FIGS. 5C-5D, Table 7) and recurrent glioblastoma (FIGS. 5E-5F, Table 8) (n=2); metastatic breast adenocarcinoma (FIGS. 5G-5H, Table 9) (n=1); metastatic non-small-cell lung cancer (FIGS. 5I-5J, Table 10) (n=1); and primary central nervous system (CNS) lymphoma (FIGS. 5K-5L, Table 11) (n=1). […] Overall, mass and MAR were measured for 1092 cells with an average of 84 cells measured per condition over 13 conditions tested (FIGS. 1B-1C). […]

Lung Met cells = experiment: Sample viability (Live/Dead), lung metastasis; conditions: 100 μM Carbo, 3 days; vehicle 80%
Description: (§1) Primary Sample Handling. The six primary samples underwent the same protocol with regards to disassociation, recovery, and drugging; however, the exact timeline of each tissue varied slightly based on the amount of tissue and drug used (Table 1, below). After at least [culture time] in culture (with the exception of CNS lymphoma which was cultured for 24 hours), persistent red blood cells were removed with RBC lysis buffer (00-433-57, Thermo Fisher Scientific). The remaining cells were then dissociated with Accutase (A6964, Sigma-Aldrich) and further purified via demyelination (130-096-733, Miltenyi Biotec) with MS separation columns (130-042-201, Miltenyi Biotec), or debris removal (130-109-398, Miltenyi Biotec). The purified cells were plated in 6 or 24 well plates and allowed to recover in the well plate for [recovery time] before addition of the drug. After [drug duration] days, the samples were prepared for sSMR for drug response measurements by dissociation into a single-cell suspension using Accutase and gentle pipetting. Cells were resuspended at a concentration of 100,000 cells/mL in Neurocult NS-A (as prepared above) with the same concentration of drug or DMSO as their respective culture. Measurements for sample viability were determined (Table 2, below).

Breast Met cells = experiment: Sample viability (Live/Dead), breast metastasis; conditions: 3 days, vehicle 35%
Description: as §1

[2] = test system: Recurrent Glioblastoma cells; experiment: Sample viability (Live/Dead), recurrent glioblastoma; conditions: 1 μM Abema, 3 days; vehicle 67%
Description: as §1

Normal brain cells = experiment: Sample viability (Live/Dead), normal brain; conditions: 250 μM TMZ, 3 days; vehicle 35%
Description: as §1

Glioblastoma cells = experiment: Sample viability (Live/Dead), glioblastoma; conditions: 250 μM TMZ, 8 days; vehicle 73%
Description: as §1

[3] = test system: glioblastoma multiforme (GBM) patient-derived cell lines (PDCLs); experiment: Single cell mass / MAR assay in patient-derived cell lines; conditions: TMZ compared with DMSO, heterogeneous cohort of PDCLs, FIG. 7A
Description: A single cell protocol for monitoring the mass accumulation rate (MAR) in response to chemotherapy (FIGS. 6A-6F). After tumor resection, the tissue is dissociated into single cells (FIG. 6A). The single cells from the dissociated tumor is measured within a week of resection using the mass/MAR of the single cells in response to chemotherapeutic agents (FIG. 6C). In addition to acute sensitivity testing, dissociated tumor cells from patient samples can also be grown long-term into robust cell lines (e.g., patient-derived cell lines, PDCLs), where high throughput experiments can be performed and analyzed relative to a more complete genomic background of the tissue (FIG. 6D). Because this assay is high throughput, the MAR can be measured with more conditions relative to acute patient samples. These PDCLs can be implanted in vivo to allow MAR measurements to be taken ex vivo from treated animals (e.g., mice). Metabolic readouts (e.g., CellTiter-Glo, CTG) and spheroid area analysis (e.g., IncuCyte) were conducted in parallel to the novel single cell MAR assays described herein (FIG. 6E).
Single cell MAR experiments were conducted in both PDCLs and acute patient models (FIGS. 7A-7D). […] The single cell MAR assay detected changes within 24 hours after treatment with a chemotherapeutic (TMZ) compared with DMSO (FIG. 7A).

CNS Lymphoma cells = experiment: Sample viability (Live/Dead), CNS lymphoma; conditions: 10 nM Ibrutinib, 2 days; vehicle 74%
Description: as §1

Question: With `N.N.O=C([O-])C1(C(=O)[O-])CCC1.[Pt+2]` [Carboplatin] as the molecule, how does the “Mass-normalized MAR vs vehicle (in words)” value [1] read?
Answer: Its value is “significantly reduced; also recorded: Statistically significant reductions”.

Question: What about the “Drug 1 Viability (Live/Dead)” value (Lung Met cells) of the same molecule?
Answer: The value was 74%.

Question: With `CO[C@H]1C[C@@H]2CC[C@@H](C)[C@@](O)(O2)C(=O)C(=O)N2CCCC[C@H]2C(=O)O[C@H]([C@H](C)C[C@@H]2CC[C@@H](OCCO)[C@H](OC)C2)CC(=O)[C@H](C)/C=C(\C)[C@@H](O)[C@@H](OC)C(=O)[C@H](C)C[C@H](C)/C=C/C=C/C=C/1C` [RAD001, everolimus] as the molecule, how does the “Drug 1 Viability (Live/Dead)” value (Breast Met cells; 1 nM RAD) read?
Answer: The value was 32%.

Question: Which “Drug 1 Viability (Live/Dead)” value [2] does the source give for `CCN1CCN(Cc2ccc(Nc3ncc(F)c(-c4cc(F)c5nc(C)n(C(C)C)c5c4)n3)nc2)CC1` [Abemaciclib] here?
Answer: The value was 59%.

Question: And the “Drug 2 Viability (Live/Dead)” value (Breast Met cells; 100 nM Abema)?
Answer: The value was 35%.

Question: `Cn1nnc2c(C(N)=O)ncn2c1=O` [TMZ, Temozolomide] was tested. Which “Drug 1 Viability (Live/Dead)” value (Normal brain cells) did it give?
Answer: Its value is 30%.

Question: What about the “Drug 1 Viability (Live/Dead)” value (Glioblastoma cells) of the same molecule?
Answer: Its value is 69%.

Question: What about the “time after treatment at which single cell MAR changes were detected” value [3] of the same molecule?
Answer: The value was at most 24 h.

Question: Which “Drug 1 Viability (Live/Dead)” value (CNS Lymphoma cells) does the source give for `C=CC(=O)N1CCC[C@@H](n2nc(-c3ccc(Oc4ccccc4)cc3)c3c(N)ncnc32)C1` [Ibrutinib] here?
Answer: Its value is 65%.
